# Measured values from patent US7902373B2 (Pfizer Inc, priority 2006, dated 2011).
# Target: T1, human recombinant H-PGDS (Homo sapiens, UniProt O60760)
# Assay: Fluorescence intensity h-PGDS TBA enzyme assay
# Assay type: biochemical
# Details: Examples up to 622 (and 3a, 3b)
# T1 sequence (O60760 whole entry): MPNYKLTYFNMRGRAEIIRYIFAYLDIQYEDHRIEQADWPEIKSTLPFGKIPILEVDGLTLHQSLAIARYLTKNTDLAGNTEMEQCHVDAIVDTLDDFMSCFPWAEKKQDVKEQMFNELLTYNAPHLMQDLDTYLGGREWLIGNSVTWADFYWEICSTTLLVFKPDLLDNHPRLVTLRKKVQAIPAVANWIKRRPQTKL
row,Molecule,IC50 [nM]
1,"CCOC(=O)N1CCC(NC(=O)c2ccc(-c3ccccc3F)nc2)CC1 [Example 586, Ethyl 4-({[6-(2-fluorophenyl)pyridin-3-yl]carbonyl}amino)piperidine-1-carboxylate]",0.787
2,"O=C(NC1CCN(Cc2cccc(F)c2)CC1)c1ccc(-c2ccccc2F)nc1 [Example 588, N-[1-(3-Fluorobenzyl)piperidin-4-yl]-6-(2-fluorophenyl)nicotinamide]",0.621
3,"CN1CCc2nc(N3CCC(NC(=O)c4ccc(-c5cccc(F)c5)nc4)C3)ncc2C1 (stereo not drawn) [Example 597, 6-(3-Fluorophenyl)-N-[1-(6-methyl-5,6,7,8-tetrahydropyrido[4.3-d]pyrimidin-2-yl)pyrrolidin-3-yl]nicotinamide]",0.85
4,"CC(C)(C)OC(=O)N1CCC(NC(=O)c2ccc(-c3cccc(F)c3)nc2)CC1 [Example 598, tert-Butyl 4-({[6-(3-fluorophenyl)pyridin-3-yl]carbonyl}amino)piperidine-1-carboxylate]",3.79
5,CC(C)(C)OC(=O)N1CC(NC(=O)c2ccc(-c3cccc(F)c3)nc2)C1 [Example 599],2.92
6,Cc1cc(C)c(C#N)c(N2CC(NC(=O)c3ccc(-c4cccc(F)c4)nc3)C2)n1 [Example 602],2.98
7,"O=C(NC1CN(c2cnc3ccccc3n2)C1)c1ccc(-c2cccc(F)c2)nc1 [Example 605, 6-(3-Fluorophenyl)-N-(1-quinoxalin-2-ylazetidin-3-yl)nicotinamide]",2.9
8,"Cc1ccc(C#N)c(N2CC(NC(=O)c3ccc(-c4cccc(F)c4)nc3)C2)n1 [Example 607, N-[1-(3-Cyano-6-methylpyridin-2-yl)azetidin-3-yl]-6-(3-fluorophenyl)nicotinamide]",4.44
9,"O=C(NC1CCN(c2cccnn2)CC1)c1cnc(-c2cccc(F)c2)c(Cl)c1 [Example 621, 5-Chloro-6-(3-fluorophenyl)-N-(1-pyridazin-3-ylpiperidin-4-yl)nicotinamide]",1.59
10,"CC(C)(C)C(=O)N1CCC(NC(=O)c2cnc(-c3cccc(F)c3)c(Cl)c2)CC1 [Example 622, 5-Chloro-6-(3-fluorophenyl)-N-(1-pivaloylpiperidin-4-yl)nicotinamide]",3.48
11,"N-(1-{[4-(3,4)-1,3-Thiazol-2-yl]methyl}piperidin-4-yl)- 6-(3-fluorophenyl)nicotinamide [Example 413]",1000
12,N-{1-[1-(2-Ethoxyphenyl)-1H-tetrazol-5- yl]piperidin-4-yl}-6-(3-fluorophenyl)nicotinamide [Example 105],0.655

# Next, values leading:
row,IC50 [nM],Molecule
1,1.38,"CCOC(=O)N1CCC(NC(=O)c2ccc(-c3cc(F)ccc3F)nc2)CC1 [Example 584, Ethyl 4-({[6-(2,5-Difluorophenyl)pyridine-3-yl]carbonyl}amino)piperidine-1-carboxylate]"
2,0.734,"O=C(NC1CCN(CC(F)(F)F)CC1)c1ccc(-c2ccccc2F)nc1 [Example 585, 6-(2-Fluorophenyl)-N-[1-(2,2,2-trifluoroethyl)piperidin-4-yl]nicotinamide]"
3,1.19,"O=C(NC1CCN(Cc2ccccn2)CC1)c1ccc(-c2ccccc2F)nc1 [Example 587, 6-(2-Fluorophenyl)-N-[1-(pyridin-2-ylmethyl)piperidin-4-yl]nicotinamide]"
4,33.3,"CC(C)N1CCC(NC(=O)c2ccc(-c3cccc(F)c3)nc2)C1 (stereo not drawn) [Example 589, 6-(3-Fluorophenyl)-N-(1-isopropylpyrrolidin-3-yl)nicotinamide]"
5,0.74,"O=C(NC1CCN(c2ncc3c(n2)CCOC3)C1)c1ccc(-c2cccc(F)c2)nc1 (stereo not drawn) [Example 590, N-[1-(7,8-Dihydro-5H-pyrano[43-d]pyrimidin-2-yl)pyrrolidin-3-yl]-6-(3-fluorophenyl)nicotinamide]"
6,5.57,"CCCN1CCC(NC(=O)c2ccc(-c3cccc(F)c3)nc2)CC1 [Example 591, 6-(3-Fluorophenyl)-N-(1-propylpiperidin-4-yl)nicotinamide]"
7,2.44,"CNC(=O)N1CCC(NC(=O)c2ccc(-c3cccc(F)c3)nc2)CC1 [Example 592, 6-(3-Fluorophenyl)-N-{1-[(methylamino)carbonyl]piperidin-4-yl}nicotinamide]"
8,2,"O=C(NC1CCN(CC2CCOCC2)CC1)c1ccc(-c2cccc(F)c2)nc1 [Example 593, 6-(3-Fluorophenyl)-N-[1-(tetrahydro-2H-pyran-4-ylmethyl)piperidin-4-yl]nicotinamide]"
9,2.7,"CCOC(=O)N1CCC(NC(=O)c2ccc(-c3cccc(F)c3)nc2)C1 (stereo not drawn) [Example 594, Ethyl 3-({[6-(3-fluorophenyl)pyridin-3-yl]carbonyl}amino)pyrrolidine-1-carboxylate]"
10,1.06,"O=C(NC1CCN(c2ncc3c(n2)CCC3)C1)c1ccc(-c2cccc(F)c2)nc1 (stereo not drawn) [Example 595, N-[1-(6,7-Dihydro-5H-cyclopenta[d]pyrimidin-2-yl)pyrrolidin-3-yl]-6-(3-fluorophenyl)nicotinamide]"
11,1.93,"O=C(NC1CCN(CC2CC2)CC1)c1ccc(-c2cccc(F)c2)nc1 [Example 596, N-[1-(Cyclopropylmethyl)piperidin-4-yl]-6-(3-fluorophenyl)nicotinamide]"
12,6.76,"CC(C)(C)C(=O)N1CC(NC(=O)c2ccc(-c3cccc(F)c3)nc2)C1 [Example 601, N-[1-(2,2-Dimethylpropanoyl)azetidin-3-yl]-6-(3-fluorophenyl)nicotinamide]"
13,2.29,"CCc1cn2nc(N3CC(NC(=O)c4ccc(-c5cccc(F)c5)nc4)C3)ccc2n1 [Example 603, N-[1-(2-Ethylimidazo[1,2-b]pyridazin-6-yl)azetidin-3-yl]-6-(3-fluorophenyl)nicotinamide]"
14,11.5,"O=C(NC1CN(c2ncccc2C(F)(F)F)C1)c1ccc(-c2cccc(F)c2)nc1 [Example 604, 6-(3-Fluorophenyl)-N-{1-[3-(trifluoromethyl)pyridin-2-yl]azetidin-3-yl}nicotinamide]"
15,10.8,"O=C(NC1CN(c2nc3ccccc3o2)C1)c1ccc(-c2cccc(F)c2)nc1 [Example 606, N-[1-(1,3-Benzoxazol-2-yl)azetidin-3-yl]-6-(3-fluorophenyl)nicotinamide]"
16,3.66,"O=C(NC1CCN(CC(F)(F)F)CC1)c1cnc(-c2cccc(F)c2)c(Cl)c1 [Example 620, 5-Chloro-6-(3-fluorophenyl)-N-[1-(2,2,2-trifluoroethyl)piperidin-4-yl]nicotinamide]"
17,0.375,N-[1-(2-Chloro-2-fluoro-5-methoxybenzyl)piperidin-4- yl]-6-(3-fluorophenyl)nicotinamide [Example 468]

# Target: T1, human recombinant H-PGDS
# Assay: Slightly modified h-PGDS TBA enzyme assay (Examples 623 onwards)
# Assay type: biochemical
# Details: not given
# Procedure: Prostaglandin D Synthase (PGDS) converts the substrate prostaglandin H2 (PGH2) to prostaglandin D2.
# Examples 623 onwards were tested in a slightly modified assay: The enzyme assay (30 μls during biological process) contained 100 mM Trizma pH 8.0, 100 μM MgCl2, 0.1 mg/ml IgG Rabbit serum, 5.0 μM PGH2 (Cayman; ethanol solution, #17020), 2.5 mM L-Glutathione (Sigma; reduced form #G4251), 1:40,000 human recombinant H-PGDS (from 1 mg/ml), 0.5% DMSO and inhibitor (varying concentration). 3 μls of diluted inhibitor (dissolved in DMSO) was plated into a 384-well assay plate followed by a 24 μl addition of an enzyme solution containing h-PGDS, Trizma, MgCl2, IgG and L-Glutathione. After pre-incubation of inhibitor and enzyme solution for 10 minutes at room temperature, the reaction was initiated with a 3 μl addition of substrate solution in 10 mM HCl. The reaction was terminated after 40 second by the addition of 3 μl stop buffer containing FeCl2 and citric acid. After addition of 45 μl of TBA plates were heated for one hour in a 70° C. oven. Plates were cooled at room temperature overnight and read on a plate reader the next day with excitation @ 530 nm and emission @ 560 nm. IC50's of inhibitors were calculated with a 4-parameter fit using 11 inhibitor concentrations in duplicate with 1/2 log serial dilutions. […] The highest inhibitor concentration tested was typically 10 μM.
row,Molecule,IC50 [nM]
1,"N#Cc1cccc(-c2ccc(C(=O)NC3CCN(CC(F)(F)F)CC3)cn2)c1 [Example 623, 6-(3-Cyanophenyl)-N-[1-(2,2,2-trifluoroethyl)piperidin-4-yl]nicotinamide]",104
2,CC(C)(C)C(=O)N1CCC(NC(=O)c2ccc(-c3ccccc3O)nc2)CC1 [Example 627],6.75
3,O=C(NC1CCN(CC2CC2)CC1)c1ccc(-c2ccccc2O)nc1 [Example 629],22.2
4,COCCN1CCC(NC(=O)c2ccc(-c3ccccc3O)nc2)CC1 [Example 630],32.8
5,O=C(NC1CCN(c2cccnn2)CC1)c1ccc(-c2ccccc2O)nc1 [Example 632],5.57
6,Cn1nnnc1N1CCC(NC(=O)c2ccc(-c3ccccc3O)nc2)CC1 [Example 634],6.13
7,O=C(NC1CCN(CC(F)(F)F)CC1)c1ccc(-c2cc(F)ccc2O)nc1 [Example 635],10.9
8,O=C(NC1CCN(c2cccnn2)CC1)c1ccc(-c2cc(F)ccc2O)nc1 [Example 639],10000
9,Cn1nnnc1N1CCC(NC(=O)c2ccc(-c3cc(F)ccc3O)nc2)CC1 [Example 643],7.77

# Next, values leading:
row,IC50 [nM],Molecule
1,36,"N#Cc1ccccc1-c1ccc(C(=O)NC2CCN(CC(F)(F)F)CC2)cn1 [Example 624, 6-(2-Cyanophenyl)-N-[1-(2,2,2-trifluoroethyl)piperidin-4-yl]nicotinamide]"
2,4.06,"O=C(NC1CCN(c2ncccn2)CC1)c1ccc(-c2ccccc2O)nc1 [Example 625, 6-(2-Hydroxyphenyl)-N-(1-pyrimidin-2-ylpiperidin-4-yl)nicotinamide]"
3,6.22,CCOC(=O)N1CCC(NC(=O)c2ccc(-c3ccccc3O)nc2)CC1 [Example 628]
4,82.4,CCCN1CCC(NC(=O)c2ccc(-c3ccccc3O)nc2)CC1 [Example 631]
5,16.6,CC(C)S(=O)(=O)N1CCC(NC(=O)c2ccc(-c3ccccc3O)nc2)CC1 [Example 633]
6,17.2,CC(C)(C)C(=O)N1CCC(NC(=O)c2ccc(-c3cc(F)ccc3O)nc2)CC1 [Example 636]
7,62.4,COCCN1CCC(NC(=O)c2ccc(-c3cc(F)ccc3O)nc2)CC1 [Example 637]
8,83.3,CCCN1CCC(NC(=O)c2ccc(-c3cc(F)ccc3O)nc2)CC1 [Example 638]
9,129,CCN1CCC(NC(=O)c2ccc(-c3cc(F)ccc3O)nc2)CC1 [Example 640]
10,13.9,CC(C)S(=O)(=O)N1CCC(NC(=O)c2ccc(-c3cc(F)ccc3O)nc2)CC1 [Example 642]
